US5514694A, “Peptidyl ketoamides” (Georgia Tech Research Corp, priority 1993, dated 1996)
Like-named read-outs stand apart in the source and are kept apart here.

Experiments:
Assay type in all cases: biochemical
calpain II from rabbit = assay: Calpain II inhibition, Suc-Leu-Tyr-AMC hydrolysis (KI); conditions: read-out: KI Cal II
Experimental: (§1) HEPES, heparin, and A23187 were obtained from Calbiochem. Suc-Leu-Tyr-AMC and chromogenic substrates were obtained from Sigma. Calpain I was purified from human erythrocytes according to the method of Kitahara (Kitahara et al., J. Biochem. 95, 1759-1766) omitting the Blue-Sepharose step. Calpain II from rabbit muscle and cathepsin B were purchased from Sigma. Papain was purchased from Calbiochem.
(§2) Peptide α-ketoamides were assayed as reversible enzyme inhibitors. Various concentrations of inhibitors in Me2 SO were added to the assay mixture which contained buffer and substrate. The reaction was started by the addition of the enzyme and the hydrolysis rates were followed spectrophotometrically or fluorimetrically.
(§3) Calpain I from human erythrocytes and calpain II from rabbit were assayed using Suc-Leu-Tyr-AMC Sasaki et al., J. Biol. Chem. 259, 12489-12494 (1984); incorporated herein by reference!, and the AMC (7-amino-4-methylcoumarin) release was followed fluorimetrically (excitation at 380 nm, and emmision at 460 nm). Calpains were assayed in 25 mM Tris pH=8.0, 10 mM CaC12. Fluorescence was followed using a Gilson FL-1A fluorometer or a Perkin-Elmer 203 Fluorescence spectrometer. Cathepsin B was assayed in 20 mM sodium acetate pH=5.2, 0.5 mM dithiothreitol using Bz-Phe-Val-Arg-p-nitroanilide as substrate. Alternately, cathepsin B was assayed with Z-Arg-Arg-AFC Barrett and Kirschke, Methods Enzymol. 80, 535-561 (1981); incorporated herein by reference!, and the AFC (7-amino-4-trifluoromethylcoumarin) release was followed fluorimetrically (excitation at 400 nm and emmision at 505 nm). Papain was assayed in 100 mM KPO4, 1 mM EDTA, 2.5 mM cysteine pH=6.0 using Bz-Arg-AMC or Bz-Arg-NA Kanaoka et al., Chem. Pharm. Bull. 25, 3126-3128 (1977); incorporated herein by reference! as a substrate. The AMC (7-amino-4-methylcoumarin) release was followed fluorimetrically (excitation at 380 nm, and emmision at 460 nm). Enzymatic hydrolysis rates were measured at various substrate and inhibitor concentrations, and KI values were determined by either Lineweaver-Burk plots or Dixon plots.
(§4) A 0.1M Hepes, 0.5M NaCl, pH 7.5 buffer was utilized for human leukocyte elastase (HLE), porcine pancreatic elastase (PPE), chymotrypsin and cathepsin G. A 0.1 Hepes, 0.01 M CaCl2, pH 7.5 buffer was utilized for trypsin, plasmin, and coagulation enzymes. A 50 mM Tris.HCl, 2 mM EDTA, 5 mM cysteine, pH 7.5 was used as a buffer for papain. A 88 mM KH2 PO4, 12 mM Na2 HPO4, 1.33 mM EDTA, 2.7 mM cysteine, pH 6.0 solution was used as a buffer for cathepsin B. A 20 mM Hepes, 10 mM CaCl2, 10 mM mercatoethanol, pH 7.2 buffer was utilized for calpain I and calpain II.

[1] = target: T1, Calpain I from human erythrocytes (Homo sapiens, UniProt P07384); assay: Calpain I inhibition, Suc-Leu-Tyr-AMC hydrolysis (KI); conditions: for Ki: read-out: KI Cal I
T1 construct: Calpain I was purified from human erythrocytes; from tissue; host or cells: human erythrocytes
T1 sequence (P07384 1-714): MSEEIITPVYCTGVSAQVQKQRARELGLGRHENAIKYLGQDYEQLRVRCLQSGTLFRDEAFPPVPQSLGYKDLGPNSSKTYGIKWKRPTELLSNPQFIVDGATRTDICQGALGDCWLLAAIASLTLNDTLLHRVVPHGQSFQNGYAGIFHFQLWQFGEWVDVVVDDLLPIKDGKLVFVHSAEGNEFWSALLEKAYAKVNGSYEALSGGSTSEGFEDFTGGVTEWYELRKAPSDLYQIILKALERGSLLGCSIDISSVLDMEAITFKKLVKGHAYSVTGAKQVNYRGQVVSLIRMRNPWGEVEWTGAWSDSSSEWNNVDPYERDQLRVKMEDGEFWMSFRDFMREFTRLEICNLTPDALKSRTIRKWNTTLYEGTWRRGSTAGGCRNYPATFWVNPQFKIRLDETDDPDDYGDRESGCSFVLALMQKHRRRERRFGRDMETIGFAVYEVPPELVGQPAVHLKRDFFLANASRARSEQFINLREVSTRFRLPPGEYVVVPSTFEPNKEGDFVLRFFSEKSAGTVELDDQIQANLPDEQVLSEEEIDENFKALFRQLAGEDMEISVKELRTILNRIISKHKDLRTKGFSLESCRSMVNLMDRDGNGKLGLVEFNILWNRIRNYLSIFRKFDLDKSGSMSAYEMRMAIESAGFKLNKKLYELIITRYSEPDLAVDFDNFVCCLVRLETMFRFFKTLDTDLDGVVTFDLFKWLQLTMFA
T1 sequence (P04632 1-268 partner): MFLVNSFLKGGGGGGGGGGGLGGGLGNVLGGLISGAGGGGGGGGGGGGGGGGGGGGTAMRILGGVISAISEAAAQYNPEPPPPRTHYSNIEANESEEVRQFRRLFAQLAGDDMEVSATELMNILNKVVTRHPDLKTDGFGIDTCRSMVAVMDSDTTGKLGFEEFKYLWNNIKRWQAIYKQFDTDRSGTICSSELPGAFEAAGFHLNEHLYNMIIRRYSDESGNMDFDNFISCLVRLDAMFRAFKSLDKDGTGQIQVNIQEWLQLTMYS
Experimental: as §1, §2, §3, §4

[2] = target: T2, human leukocyte elastase (HLE) (Homo sapiens, UniProt P08246); assay: HLE inhibition, MeO-Suc-Ala-Ala-Pro-Val-NA hydrolysis; conditions: Table 4, Z-Leu--AA--CONH-R
T2 sequence (P08246 30-267): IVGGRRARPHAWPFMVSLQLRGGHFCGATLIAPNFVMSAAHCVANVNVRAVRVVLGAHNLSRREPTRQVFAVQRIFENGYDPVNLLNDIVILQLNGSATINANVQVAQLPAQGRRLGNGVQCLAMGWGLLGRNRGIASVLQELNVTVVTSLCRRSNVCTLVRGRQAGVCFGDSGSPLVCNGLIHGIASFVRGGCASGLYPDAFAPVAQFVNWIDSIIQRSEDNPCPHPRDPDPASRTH
Experimental: as §2, §4
HLE and PPE were assayed with MeO-Suc-Ala-Ala-Pro-Val-NA and Suc-Ala-Ala-Ala-NA, respectively Nakajima et al., J. Biol. Chem. 254, 4027-4032 (1979); incorporated herein by reference!. Human leukocyte cathepsin G and chymotrypsin Aα were assayed with Suc-Val-Pro-Phe-NA Tanaka et al., Biochemistry 24, 2040-2047 (1985); incorporated herein by reference!. The hydrolysis of peptide 4-nitroanilides was measured at 410 nm ε410 =8800 M^-1 cm^-1; Erlanger et al., Arch. Biochem. Biophys. 95, pp 271-278 (1961); incorporated herein by reference!. Trypsin, thrombin, human plasma kallikrein, porcine pancreatic kallikrein, human factor XIa, and human plasmin were assayed with Z-Arg-SBzl or Z-Gly-Arg-SBu-i McRae et al., Biochemistry 20, 7196-7206 (1981); incorporated herein by reference!. All peptide thioester hydrolysis rates were measured with assay mixtures containing 4,4'-dithiodipyridine ε324 =19800 M^-1 cm^-1; Grasetti & Murray, Arch. Biochem. Biophys. 119, 41-49 (1967); incorporated herein by reference!.

cathepsin B = target: T3, cathepsin B (Homo sapiens, UniProt P07858); assay: Cathepsin B inhibition (KI); conditions: Table 1, Z-Leu--AA--CONHR; read-out: KI Cat B
T3 construct: purchased Sigma
Experimental: as §1, §2, §3, §4

[3] = Table 2, Z-Leu--AA--CONH--CH2 CH(OH)-R

| Molecule | Ki ([1]; Table 1, Z-Leu--AA--CONHR) | IC50 [2] | Ki [1, 3] | also measured |
| --- | --- | --- | --- | --- |
| CCC(NC(=O)C(CC(C)C)NC(=O)C(c1ccccc1)c1ccccc1)C(=O)C(=O)NCc1ccccn1 (stereo not drawn) [Ph2 CH-CO-Leu-Abu-CONH-CH2 -2-pyridyl, Ph2 CHCO-Leu-Abu-CONH-2-CH2 -Pyridyl] |  |  |  | Ki (calpain II from rabbit; Table 3, M1 CO-Leu--AA--CONH-R): 90 nM |
| CC(C)CC(NC(=O)C(c1ccccc1)c1ccccc1)C(=O)NC(Cc1ccccc1)C(=O)C(=O)NCC(O)c1ccccc1 (stereo not drawn) [Ph2 CH-CO-Leu-Phe-CONH-CH2 CH(OH)Ph, Ph2 CHCO-Leu-Phe-CONH--CH2 CH(OH)Ph] |  |  |  | Ki ([1]; Table 3, M1 CO-Leu--AA--CONH-R): 10000 nM; Ki (calpain II from rabbit; Table 3, M1 CO-Leu--AA--CONH-R): 730 nM |
| CCC(NC(=O)C(CC(C)C)NC(=O)OCc1ccccc1)C(=O)C(=O)NCCc1ccccn1 (stereo not drawn) [Z-Leu-Abu-CONH-(CH2)2 -2-pyridyl, Z-Leu-Abu-CONH--(CH2)2 -2-Pyridyl] | 410 nM |  |  | Ki (calpain II from rabbit; Table 1, Z-Leu--AA--CONHR): 470 nM |
| CCC(NC(=O)C(CC(C)C)NC(=O)OCc1ccccc1)C(=O)C(=O)NCCc1c[nH]c2ccccc12 (stereo not drawn) [Z-Leu-Abu-CONH-(CH2)2 -3-indolyl, Z-Leu-Abu-CONH--(CH2)2 -3-Indolyl] | 300 nM | 48000 nM |  | Ki (calpain II from rabbit; Table 1, Z-Leu--AA--CONHR): 50 nM |
| CCC(NC(=O)[C@H](CC(C)C)NC(=O)OCc1ccccc1)C(=O)C(=O)NCCN1CCOCC1 (stereo partly drawn) [Z-Leu-Abu-CONH-(CH2)2 -4-morpholinyl, Z-Leu-Abu-CONH--(CH2)2 -4-Morpholinyl] | 1000 nM |  |  | Ki (cathepsin B): 2500 nM |
| CC[C@H](NC(=O)[C@H](CC(C)C)NC(=O)OCc1ccccc1)C(=O)C(=O)NCCc1ccccc1OC [Z-Leu-Abu-CONH-(CH2)2 C6 H4 (2-OCH3), Z-Leu-Abu-CONH--(CH2)2 C6 H4 (2-OCH3)] | 130 nM |  |  | Ki (cathepsin B): 630 nM |
| CCC(NC(=O)C(CC(C)C)NC(=O)OCc1ccccc1)C(=O)C(=O)NCCNC(=O)CCCCC1SCC2NC(=O)NC21 (stereo not drawn) [Z-Leu-Abu-CONH-(CH2)2 NH-biotinyl, Z-Leu-Abu-CONH--(CH2)2NH-Biotinyl] | 650 nM | 38000 nM |  |  |
| CC[C@H](NC(=O)[C@H](CC(C)C)NC(=O)OCc1ccccc1)C(=O)C(=O)NCCOCCO [Z-Leu-Abu-CONH-(CH2)2 O(CH2)2 OH, Z-Leu-Abu-CONH--(CH2)2 O(CH2)2 OH] |  |  |  | Ki (cathepsin B): 2000 nM |
| CCC(NC(=O)C(CC(C)C)NC(=O)OCc1ccccc1)C(=O)C(=O)NCCO (stereo not drawn) [Z-Leu-Abu-CONH-(CH2)2 OH, Z-Leu-Abu-CONH--(CH2)2 OH] | 800 nM |  |  | Ki (cathepsin B): 4500 nM |
| CCC(NC(=O)C(CC(C)C)NC(=O)OCc1ccccc1)C(=O)C(=O)NCCCN1CCc2ccccc2C1 (stereo not drawn) [Z-Leu-Abu-CONH--(CH2)3 -2-Tetrahydroisoquinolinyl] | 310 nM |  |  | Ki (cathepsin B): 8000 nM |
| CCC(NC(=O)C(CC(C)C)NC(=O)OCc1ccccc1)C(=O)C(=O)NCC(O)c1ccc(OCc2ccccc2)c(OCc2ccccc2)c1 (stereo not drawn) [Z-Leu-Abu-CONH--CH2 CH(OH)C6 H3 (3,4-(OCH2 Ph)2)] |  | 64000 nM | 230 nM |  |
| CCC(NC(=O)C(CC(C)C)NC(=O)OCc1ccccc1)C(=O)C(=O)NCC(O)c1cccc(Oc2cccc(C(F)(F)F)c2)c1 (stereo not drawn) [Z-Leu-Abu-CONH--CH2 CH(OH)C6 H4 -3-OC6 H4 (3-CF3)] |  | 30000 nM | 70 nM |  |
| CCC(NC(=O)C(CC(C)C)NC(=O)OCc1ccccc1)C(=O)C(=O)NCc1nc2c(c(=O)n(C)c(=O)n2C)n1C (stereo not drawn) [Z-Leu-Abu-CONH-CH2 -8-caffeine, Z-Leu-Abu-CONH--CH2 -8-Caffeine] | 32000 nM | 156000 nM |  |  |
| CCC(NC(=O)C(CC(C)C)NC(=O)OCc1ccccc1)C(=O)C(=O)NCC(O)c1cccc(Oc2ccccc2)c1 (stereo not drawn) [Z-Leu-Abu-CONH-CH2 CH(OH)-C6 H4 (3-OPh), Z-Leu-Abu-CONH--CH2 CH(OH)C6 H4 (3-OPh)] |  | 45000 nM | 900 nM |  |
| CCC(NC(=O)C(CC(C)C)NC(=O)OCc1ccccc1)C(=O)C(=O)NCC(O)c1ccc(OC)cc1 (stereo not drawn) [Z-Leu-Abu-CONH-CH2 CH(OH)-C6 H4 (4-OCH3), Z-Leu-Abu-CONH--CH2 CH(OH)C6 H4 (4-OCH3)] |  | 32000 nM | 240 nM |  |
| CCC(NC(=O)C(CC(C)C)NC(=O)OCc1ccccc1)C(=O)C(=O)NCC(O)c1ccc(Oc2ccccc2)cc1 (stereo not drawn) [Z-Leu-Abu-CONH-CH2 CH(OH)-C6 H4 (4-OPh), Z-Leu-Abu-CONH--CH2 CH(OH)C6 H4 (4-OPh)] |  | 28000 nM | 100 nM |  |
| CCCC(NC(=O)C(CC(C)C)NC(=O)OCc1ccccc1)C(=O)C(=O)NCc1ccccn1 (stereo not drawn) [Z-Leu-Nva-CONH-CH2 -2-pyridyl, Z-Leu-Nva-CONH--CH2 -2-Pyridyl] | 19 nM |  |  | inhibition of calpain I, in words [1]: best inhibitor of calpain I; Ki (calpain II from rabbit; Table 1, Z-Leu--AA--CONHR): 120 nM |
| CCCC(NC(=O)C(CC(C)C)NC(=O)OCc1ccccc1)C(=O)C(=O)NCC(O)c1ccccc1 (stereo not drawn) [Z-Leu-Nva-CONH-CH2 CH(OH)-Ph, Z-Leu-Nva-CONH--CH2 CH(OH)Ph] |  |  | 7800 nM | Ki (calpain II from rabbit; [3]): 11000 nM |
| Z-Leu-Abu-CONH--(CH2)2 C6 H4 (4-OH) [Z-Leu-Abu-CONH-(CH2)2 C6 H4 (4-OH)] | 380 nM |  |  | Ki (calpain II from rabbit; Table 1, Z-Leu--AA--CONHR): 60 nM |
| Z-Leu-Abu-CONH--CH2 CH(OH)C6 F5 [Z-Leu-Abu-CONH-CH2 CH(OH)-C6 F5] |  | 44000 nM | 50 nM | inhibition of calpain I, in words [1]: best inhibitor for calpain I |
